# According to US20260008862A1, “Bispecific Anti-BCMA x Anti-CD3 Antibodies and Uses Thereof” (Regeneron Pharmaceuticals, Inc., priority 2018, published 2026):
# Tests used:
# [1] = test system: Jurkat/NFATLuc.3C7 cells + MM1-S cells; assay: Jurkat/NFATLuc reporter bioassay with MM1-S cells; type: cell-based; settings: highest RLU / lowest RLU
# Experimental: Activity of the anti-BCMA×anti-CD3 bispecific antibodies were assessed in a Jurkat/NFATLuc reporter bioassay utilizing several cell lines with varying levels of BCMA surface expression. The Jurkat cells were engineered to express an NFAT-luciferase reporter (Jurkat/NFATLuc.3C7), and 50,000 Jurkat reporter cells were combined with 50,000 BCMA positive (Daudi, MM1-S, NCI-H929, OPM-2, RPMI-8226, MOLP-8, or Raji) or BCMA negative (HEK293) cells in Thermo Nunclon delta 96 well white microwell plates (Thermo Scientific, Cat #136102) in 50 ul of assay media (RPMI media with 10% FBS and 1% P/S/G). Three-fold serial dilutions of the BCMA×CD3 bispecific antibodies (mAb25441 D or mAb25442D), or a bivalent anti-BCMA antibody (mAb21581) were immediately added in 50 μL of assay buffer. The plates were gently agitated and incubated in a 37° C., 5% CO2 incubator for 4-6 hours. NFAT-Luciferase activity was determined using Promega One-Glo (Cat #E6130) and a Perkin Elmer Envision plate reader. RLU were plotted in GraphPad Prism using a four-parameter logistic equation over a 12-point response curve to calculate EC50 values. […] The signal to noise (S:N) is determined by taking the ratio of the highest RLU on the curve to the lowest.
# [2] = test system: BCMA+ OPM-2-luciferase tumors; assay: OPM-2-luciferase intravenous xenogenic tumor model, BLI (Example 15); type: in vivo, mouse; settings: 0.4 mg/kg on days 21, 25 and 28
# Experimental: (§1) To determine the in vivo efficacy of anti-BCMA×anti-CD3 bispecific antibodies (Abs), a xenogenic tumor study was performed. On day 0, immunodeficient NOD.Cg-Prkdc^scidIl2rg^tm1Wji/SzJ (NSG) mice were intravenously administered 2×10^6 BCMA^+ OPM-2 human multiple myeloma tumor cells that were engineered to also express firefly luciferase (OPM-2-luciferase cells). On day 10, the mice were intraperitoneally injected with 4×10^6 human peripheral blood mononuclear cells (PBMC) from a normal, healthy donor. […] The mice were administered these Abs twice more on days 25 and 28, for a total of three doses. Tumor growth was assessed through day 61 by measuring tumor bioluminescence (BLI) in anesthetized animals. As a positive control, a group of mice (n=5) was given only OPM-2-luciferase cells, but not PBMC or antibody.
# as §1, with “Implantation and measurement” for “To determine the in vivo efficacy”, “of” for “of anti-BCMA×anti-CD3 bispecific antibodies (Abs), a”, “tumors:” for “tumor study was performed.”
# Measurement of xenogenic tumor growth: BLI imaging was used to measure tumor burden. Mice were injected IP with 150 mg/kg of the luciferase substrate D-luciferin suspended in PBS. Five minutes after this injection, BLI imaging of the mice was performed under isoflurane anesthesia using the Xenogen IVIS system. Image acquisition was carried out with the field of view at D, subject height of 1.5 cm, and medium binning level with automatic exposure time determined by the Living Image Software. BLI signals were extracted using Living Image software: regions of interest were drawn around each tumor mass and photon intensities were recorded as p/s/cm2/sr.
# [3] = test system: BCMA-expressing NCI-H929 tumors; assay: NCI-H929 + PBMC xenogenic tumor model, immediate treatment, dose response (Example 11); type: in vivo, mouse
# Experimental: To determine the in vivo efficacy of anti-BCMA×anti-CD3 bispecific antibodies (Abs), a xenogenic tumor study was performed. Immunodeficient NOD.Cg-Prkdc^scidIl2rg^tm1Wji/SzJ (NSG) mice were subcutaneously implanted with a mixture of 10×10^6 BCMA-expressing NCI-H929 human multiple myeloma tumor cells and 0.5×10^6 human peripheral blood mononuclear cells (PBMC) isolated from a normal, healthy donor. […] The mice were administered these Abs twice per week for a total of seven doses, and tumor growth was assessed over 60 days. While BCMA^+ NCI-H929 tumors grew similarly in the vehicle- and CD3-binding control-treated mice, both anti-BCMA×anti-CD3 Abs that were tested prevented the growth of tumors in a dose-dependent manner in vivo.
# Implantation and measurement of xenogenic tumors: NSG mice were subcutaneously implanted with a mixture of 10×10^6 BCMA-expressing NCI-H929 multiple myeloma cells and 0.5×10^6 PBMC derived from a normal, healthy donor. […] The mice were administered Abs twice per week for a total of seven doses. Tumor growth was measured with calipers twice per week for the duration of the experiment.
# Calculation of xenogenic tumor growth and inhibition: In order to determine tumor volume by external caliper, the greatest longitudinal diameter (length in mm) and the greatest transverse diameter (width in mm) were determined. Tumor volumes based on caliper measurements were calculated by the formula: Volume (mm^3)=(length×width^2)/2.
substance,measurement,setting,value
"REGN5458: anti-BCMA×anti-CD3 bispecific antibody: BCMA HCVR of mAb21581 (SEQ 66), CD3 HCVR of mAb7221G (SEQ 90), common LCVR SEQ 82",S:N,[1],165
same,tumor burden (in words),[2],reduced tumor burdens to background levels in the majority of animals
same,Average Tumor Size (mm3) ± SEM on Day 7,[3]; 0.04 mg/kg,30.8 ± 5.5 mm3
same,Average Tumor Size (mm3) ± SEM on Day 12,[3]; 0.04 mg/kg,71.5 ± 22.4 mm3
same,Average Tumor Size (mm3) ± SEM on Day 15,[3]; 0.04 mg/kg,133.4 ± 50.9 mm3
same,Average Tumor Size (mm3) ± SEM on Day 19,[3]; 0.04 mg/kg,413.7 ± 162.7 mm3
same,Average Tumor Size (mm3) ± SEM on Day 22,[3]; 0.04 mg/kg,669.4 ± 248.5 mm3
same,Average Tumor Size (mm3) ± SEM on Day 26,[3]; 0.04 mg/kg,1167.0 ± 431.7 mm3
same,Average Tumor Size (mm3) ± SEM on Day 29,[3]; 0.04 mg/kg,1781.8 ± 620.7 mm3
same,Average Tumor Size (mm3) ± SEM on Day 4,[3]; 0.4 mg/kg,31.9 ± 2.0 mm3
same,Average Tumor Size (mm3) ± SEM on Day 7,[3]; 0.4 mg/kg,11.3 ± 3.0 mm3
same,Average Tumor Size (mm3) ± SEM on Day 15,[3]; 0.4 mg/kg,0 ± 0 mm3
same,Average Tumor Size (mm3) ± SEM on Day 19,[3]; 0.4 mg/kg,0 ± 0 mm3
same,Average Tumor Size (mm3) ± SEM on Day 22,[3]; 0.4 mg/kg,0 ± 0 mm3
same,Average Tumor Size (mm3) ± SEM on Day 26,[3]; 0.4 mg/kg,0 ± 0 mm3
same,Average Tumor Size (mm3) ± SEM on Day 29,[3]; 0.4 mg/kg,0 ± 0 mm3
same,Average Tumor Size (mm3) ± SEM on Day 34,[3]; 0.4 mg/kg,0 ± 0 mm3
same,Average Tumor Size (mm3) ± SEM on Day 39,[3]; 0.4 mg/kg,0 ± 0 mm3
same,Average Tumor Size (mm3) ± SEM on Day 42,[3]; 0.4 mg/kg,0 ± 0 mm3
same,Average Tumor Size (mm3) ± SEM on Day 46,[3]; 0.4 mg/kg,0 ± 0 mm3
same,Average Tumor Size (mm3) ± SEM on Day 55,[3]; 0.4 mg/kg,0 ± 0 mm3
same,Average Tumor Size (mm3) ± SEM on Day 60,[3]; 0.4 mg/kg,0 ± 0 mm3
same,Average Tumor Size (mm3) ± SEM on Day 4,[3]; 4 mg/kg,18.0 ± 1.2 mm3
same,Average Tumor Size (mm3) ± SEM on Day 12,[3]; 4 mg/kg,0 ± 0 mm3
same,Average Tumor Size (mm3) ± SEM on Day 15,[3]; 4 mg/kg,0 ± 0 mm3
same,Average Tumor Size (mm3) ± SEM on Day 19,[3]; 4 mg/kg,0 ± 0 mm3
same,Average Tumor Size (mm3) ± SEM on Day 22,[3]; 4 mg/kg,0 ± 0 mm3
same,Average Tumor Size (mm3) ± SEM on Day 26,[3]; 4 mg/kg,0 ± 0 mm3
same,Average Tumor Size (mm3) ± SEM on Day 29,[3]; 4 mg/kg,0 ± 0 mm3
same,Average Tumor Size (mm3) ± SEM on Day 34,[3]; 4 mg/kg,0 ± 0 mm3
same,Average Tumor Size (mm3) ± SEM on Day 39,[3]; 4 mg/kg,0 ± 0 mm3
same,Average Tumor Size (mm3) ± SEM on Day 42,[3]; 4 mg/kg,0 ± 0 mm3
same,Average Tumor Size (mm3) ± SEM on Day 46,[3]; 4 mg/kg,0 ± 0 mm3
same,Average Tumor Size (mm3) ± SEM on Day 55,[3]; 4 mg/kg,0 ± 0 mm3
same,Average Tumor Size (mm3) ± SEM on Day 60,[3]; 4 mg/kg,0 ± 0 mm3
